Measured values from US20090053280A1, “COATING STENTS WITH CYCLIC RGD PEPTIDES OR MIMETICS” (priority 2007, published 2009).
Entries after “also recorded” stand apart in the source; their conditions may differ.

Test system: Human umbilical vein endothelial cells
Test: Millicell migration assay of HUVECs towards a cyclic RGD peptide coated membrane
Type: cell-based
Settings: 2 hours, uncoated membranes
Method: FIG. 7 (Example 5): Bar graph showing the results of migration assays utilizing specialized Millicell culture plates for in vitro testing. HUVECs were seeded onto the inside surface of Millicell membranes and semi-quantified following migration through a microporous membrane at the outside surface after two hours of incubation.
Millicell culture plate inserts from Millipore were coated with cyclic RGD peptide at the outside surface of the microporous membrane only to stimulate haplotactic cell migration. Human umbilical vein endothelial cells (HUVCEs) were loaded into millicell chambers in completed medium in the presence or absence of paclitaxel or sirolimus, and subsequently incubated for 2 hours at 37 C.°.

CC(=O)O[C@H]1C(=O)[C@@]2(C)[C@H]([C@H](OC(=O)c3ccccc3)[C@]3(O)C[C@H](OC(=O)[C@H](O)[C@@H](NC(=O)c4ccccc4)c4ccccc4)C(C)=C1C3(C)C)[C@]1(OC(C)=O)CO[C@@H]1C[C@@H]2O [paclitaxel]
Cell migration in the presence of the antiproliferative drug: marked decrease; also recorded: almost completely abolished
